Target: Thymidine kinase (Human herpesvirus 1)
Experiment: Binding affinity constant against HSV-1 thymidine kinase

O=c1[nH]c(=O)n([C@H]2C[C@H](O)[C@]3(CO)C[C@H]23)cc1C=CBr [5-((E)-2-Bromo-vinyl)-1-((1R,3S,4S,6S)-4-hydroxy-5-hydroxymethyl-bicyclo[3.1.0]hex-2-yl)-1H-pyrimidine-2,4-dione]
Ki: 62.9 µM
